Data taken from patent publication US20220401457A1, “Use of Deoxycholic Acid, Derivatives, or Salts Thereof in Managing Bacterial Infections and Compositions Related Thereto” (Emory University, priority 2019, published 2022).

How the values were obtained:
[1] = test system: pneumococcal colonization (Spn); experiment: Experiments mimicking pneumococcal colonization of the human airways; assay type: cell-based, Streptococcus pneumoniae; conditions: 0.5 mg/ml; colonization otherwise at density of 1×10^7 cfu/mL pneumococci
Description: (§1) Streptococcus pneumoniae (Spn) colonizes the upper airways of most children. From the upper airways, Spn migrates to the ear epithelium causing otitis media, a main cause of child disease in the US. Resistance in Spn strains is a serious concern. Bile salts produced in the human liver and secreted into the gut, including sodium deoxycholate. Sodium deoxycholate at a concentration of 10 mg/mL is an injectable treatment to reduce fat under the chin. The antibacterial potency of sodium deoxycholate against Spn was assessed. […] Most tested pneumococcal strains were reference strains provided by the Centers for Disease Control and Prevention (CDC). […] It is contemplated that sodium deoxycholate can be used as a prophylactic agent to eradicate Spn from the upper airways and/or as a therapeutic agent to treat pneumococcal otitis media. To eradicate Spn from the upper airways of healthy children, a strategy using the following routes can be pursued (1) the use of nasal spray to impregnate the upper airways with sodium deoxycholate, or (2) as an additive to a gel or toothpaste. For its therapeutic used in the treatment of otitis media, ototopical antibiotic preparations can be added with sodium deoxycholate to kill antibiotic resistance Spn strains.

[2] = test system: Streptococcus pneumoniae (Spn) strains; experiment: Antibacterial potency of sodium deoxycholate against cultures of Spn strains; assay type: cell-based; conditions: concentration as low as 0.5 mg/ml; within two hours of incubation; numerous different Spn strains including vaccine strains and strains with multiple resistance to antibiotics
Description: as §1

Q: Which results are given for sodium deoxycholate?
A: time of exposure to eradicate pneumococcal colonization [1]: ≤ 10 min; killing of cultures of Spn strains [2]: completely killed
